Assay results: ChEMBL document CHEMBL1201862, “PubChem BioAssay data set” (2004)
The source made the active and inactive calls.

Columns and labels:
[1] = target: T1, Short transient receptor potential channel 4 (Mus musculus, UniProt Q9QUQ5); assay: block of DAMGO-driven TRPC4 calcium entry – cell-based, HEK293 TRPC4/mu-opioid, Fluo-4 calcium, dose response (AID 434942); type: functional;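 also: potency of inhibitors blocking the TRPC4 calcium response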
T1 sequence (Q9QUQ5 whole entry): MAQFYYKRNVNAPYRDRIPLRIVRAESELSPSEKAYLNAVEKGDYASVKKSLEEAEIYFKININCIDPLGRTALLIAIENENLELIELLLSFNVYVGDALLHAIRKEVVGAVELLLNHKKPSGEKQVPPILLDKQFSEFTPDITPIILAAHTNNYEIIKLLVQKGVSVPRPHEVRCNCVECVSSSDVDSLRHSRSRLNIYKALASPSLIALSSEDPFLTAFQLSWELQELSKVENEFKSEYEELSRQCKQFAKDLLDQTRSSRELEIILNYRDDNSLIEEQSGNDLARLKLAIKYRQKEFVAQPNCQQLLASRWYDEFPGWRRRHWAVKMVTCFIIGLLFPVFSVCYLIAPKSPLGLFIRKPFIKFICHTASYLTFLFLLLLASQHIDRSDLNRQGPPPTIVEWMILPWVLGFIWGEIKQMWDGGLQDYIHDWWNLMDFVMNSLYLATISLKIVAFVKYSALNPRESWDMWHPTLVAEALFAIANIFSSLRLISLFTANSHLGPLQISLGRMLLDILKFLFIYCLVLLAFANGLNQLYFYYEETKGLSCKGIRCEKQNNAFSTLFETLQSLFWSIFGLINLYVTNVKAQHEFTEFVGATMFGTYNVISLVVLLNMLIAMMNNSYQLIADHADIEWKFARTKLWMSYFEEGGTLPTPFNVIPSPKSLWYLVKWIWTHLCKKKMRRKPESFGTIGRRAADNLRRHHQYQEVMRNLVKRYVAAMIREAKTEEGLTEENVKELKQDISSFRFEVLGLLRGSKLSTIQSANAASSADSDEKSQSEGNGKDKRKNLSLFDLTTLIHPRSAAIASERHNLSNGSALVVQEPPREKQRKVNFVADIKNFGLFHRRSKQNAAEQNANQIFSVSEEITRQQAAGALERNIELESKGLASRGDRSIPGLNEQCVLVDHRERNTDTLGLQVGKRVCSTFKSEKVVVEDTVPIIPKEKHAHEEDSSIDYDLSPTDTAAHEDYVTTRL

[2] = HIV-1 AD8 envelope cell-cell fusion blockers – cherry-pick, dose response (AID 652062); type: functional, cell-based;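 also: luciferase signal from cell-cell fusion driven by HIV-1 clade B AD8 Env; potency is for inhibitors of fusion seen as a drop in luminescence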
cells [3] = type: functional, cell-based
cells [4] = type: functional, cell-based; remark: listed apart in the source
[5] = target: FAD-linked sulfhydryl oxidase ALR (Homo sapiens, UniProt P55789); assay: ALR-catalysed DTT oxidation blockers – biochemical, H2O2 detection, luminescence, cherry-pick, dose response (AID 493248)
Chain of FAD-linked sulfhydryl oxidase ALR (P55789 whole entry): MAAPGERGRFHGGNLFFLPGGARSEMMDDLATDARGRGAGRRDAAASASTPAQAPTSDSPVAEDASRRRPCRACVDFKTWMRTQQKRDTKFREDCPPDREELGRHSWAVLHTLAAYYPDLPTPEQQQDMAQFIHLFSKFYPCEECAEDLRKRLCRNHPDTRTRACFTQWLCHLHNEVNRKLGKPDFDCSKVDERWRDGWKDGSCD

Genome polyprotein = Genome polyprotein (dengue virus type 2, UniProt P29990); assay: flavivirus cap methylation enzyme inhibition – biochemical, confirmation dose response, primary screen (AID 588689); type: functional
Chain of Genome polyprotein (P29990 2492-3391 limits assumed): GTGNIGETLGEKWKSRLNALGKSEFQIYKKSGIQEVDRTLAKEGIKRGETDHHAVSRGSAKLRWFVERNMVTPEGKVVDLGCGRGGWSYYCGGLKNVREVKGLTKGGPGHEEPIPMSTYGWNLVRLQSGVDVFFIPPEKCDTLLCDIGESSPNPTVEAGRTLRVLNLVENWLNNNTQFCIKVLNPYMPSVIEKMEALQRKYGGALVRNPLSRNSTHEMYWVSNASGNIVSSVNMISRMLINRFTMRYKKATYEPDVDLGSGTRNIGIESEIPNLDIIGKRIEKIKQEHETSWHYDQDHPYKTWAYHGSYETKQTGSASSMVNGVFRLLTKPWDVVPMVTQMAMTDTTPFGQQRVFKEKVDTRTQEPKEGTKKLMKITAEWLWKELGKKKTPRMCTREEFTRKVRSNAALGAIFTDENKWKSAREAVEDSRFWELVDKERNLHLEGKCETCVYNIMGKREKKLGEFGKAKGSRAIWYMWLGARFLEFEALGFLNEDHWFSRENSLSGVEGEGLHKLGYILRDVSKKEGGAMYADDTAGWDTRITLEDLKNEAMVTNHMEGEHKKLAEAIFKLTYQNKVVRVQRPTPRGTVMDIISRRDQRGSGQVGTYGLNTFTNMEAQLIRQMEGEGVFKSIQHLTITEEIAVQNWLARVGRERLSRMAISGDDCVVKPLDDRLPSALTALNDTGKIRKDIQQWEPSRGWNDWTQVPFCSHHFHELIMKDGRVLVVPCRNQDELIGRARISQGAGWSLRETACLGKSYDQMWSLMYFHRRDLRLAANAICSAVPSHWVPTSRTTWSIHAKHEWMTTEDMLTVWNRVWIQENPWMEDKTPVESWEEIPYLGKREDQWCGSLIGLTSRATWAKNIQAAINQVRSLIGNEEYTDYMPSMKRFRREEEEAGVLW

INS1 = assay: INS-1E survival protection against cytokine death – cell-based, luminescence, retest, dose response (AID 449756); type: functional; settings: Rattus norvegicus;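 also: cell death triggered by IL-1 beta plus TNF-alpha plus IFN-gamma mixture; protective hits raise ATP signal compared with cytokine alone wells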
Nonstructural protein 1 = Nonstructural protein 1 (Influenza A virus, UniProt Q194T2); type: functional, Influenza A virus (A/California/07/2009(H1N1))
Chain of Nonstructural protein 1 (Q194T2 whole entry): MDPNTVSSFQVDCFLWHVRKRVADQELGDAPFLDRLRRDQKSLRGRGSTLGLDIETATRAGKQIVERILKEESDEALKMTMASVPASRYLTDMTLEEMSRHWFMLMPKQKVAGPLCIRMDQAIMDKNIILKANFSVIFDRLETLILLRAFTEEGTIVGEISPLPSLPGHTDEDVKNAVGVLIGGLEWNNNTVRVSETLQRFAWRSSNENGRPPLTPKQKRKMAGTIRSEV

[6] = target: T2, High affinity choline transporter 1 (Homo sapiens, UniProt Q9GZV3); assay: human choline transporter blockers, potency – cell-based, 5-point CRC, membrane potential dye, dose response (AID 504840); type: functional
T2 sequence (Q9GZV3 whole entry): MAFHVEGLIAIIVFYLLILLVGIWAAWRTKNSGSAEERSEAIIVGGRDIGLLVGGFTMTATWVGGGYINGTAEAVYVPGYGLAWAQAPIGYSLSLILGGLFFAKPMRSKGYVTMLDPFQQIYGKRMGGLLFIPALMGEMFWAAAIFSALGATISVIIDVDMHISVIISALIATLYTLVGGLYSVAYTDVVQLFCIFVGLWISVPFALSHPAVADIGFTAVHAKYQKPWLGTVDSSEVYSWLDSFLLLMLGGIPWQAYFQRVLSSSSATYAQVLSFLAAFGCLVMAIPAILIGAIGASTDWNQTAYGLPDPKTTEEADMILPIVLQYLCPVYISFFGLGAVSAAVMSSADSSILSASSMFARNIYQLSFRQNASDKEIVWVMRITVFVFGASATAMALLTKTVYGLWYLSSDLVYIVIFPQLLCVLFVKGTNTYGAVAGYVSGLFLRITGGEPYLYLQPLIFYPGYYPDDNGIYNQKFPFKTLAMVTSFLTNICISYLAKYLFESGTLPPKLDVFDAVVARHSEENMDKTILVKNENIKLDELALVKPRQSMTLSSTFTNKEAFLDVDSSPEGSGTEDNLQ

Vero = assay: cells; type: functional; settings: Chlorocebus sabaeus
H4 = assay: Luminescence Cell-Based Dose Response HTS to Identify Activators of 5'UTR Stem-Loop Driven Prion Protein mRNA Translation in H4 Neuroglioblastoma Cells. [Related pubchem assays: 1829 (Project Summary), 1814 (Primary HTS)]; type: functional; settings: Homo sapiens
[7] = Luminescence Cell-Based Dose Confirmation HTS to Identify Activators of 5'UTR Stem-Loop Driven Alpha-Synuclein mRNA Translation in H4 Neuroglioblastoma Cells. [Related pubchem assays: 1829 (Project Summary), 1814 (Primary HTS)]; type: functional
Protein skinhead-1 = target: T3, Protein skinhead-1 (Caenorhabditis elegans, UniProt P34707); type: functional
T3 sequence (P34707 whole entry): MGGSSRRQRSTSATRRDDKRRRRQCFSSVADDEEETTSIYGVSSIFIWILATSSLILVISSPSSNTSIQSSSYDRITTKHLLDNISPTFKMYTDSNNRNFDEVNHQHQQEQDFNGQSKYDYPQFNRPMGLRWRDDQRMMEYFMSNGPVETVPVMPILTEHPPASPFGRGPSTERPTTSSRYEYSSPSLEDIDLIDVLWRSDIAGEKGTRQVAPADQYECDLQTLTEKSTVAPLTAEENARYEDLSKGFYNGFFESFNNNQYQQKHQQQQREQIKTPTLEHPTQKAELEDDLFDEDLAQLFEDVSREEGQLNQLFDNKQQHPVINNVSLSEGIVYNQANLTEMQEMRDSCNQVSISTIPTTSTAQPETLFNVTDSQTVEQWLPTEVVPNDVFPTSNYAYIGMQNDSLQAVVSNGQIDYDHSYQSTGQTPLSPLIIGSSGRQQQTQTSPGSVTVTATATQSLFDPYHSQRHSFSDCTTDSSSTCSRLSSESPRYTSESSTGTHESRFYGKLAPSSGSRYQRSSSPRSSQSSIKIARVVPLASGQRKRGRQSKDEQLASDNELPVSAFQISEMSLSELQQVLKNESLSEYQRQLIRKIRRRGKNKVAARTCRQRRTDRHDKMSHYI

[8] = Luminescence Cell-Based Dose Response HTS to Identify Activators of Luciferase Translation or Activity in H4 […] Cells. [Related pubchem assays: 1829 (Project Summary), 1814 (Primary HTS)]; type: functional
Streptokinase A = target: T4, Streptokinase A (Streptococcus pyogenes serotype M1, UniProt P10520); assay: viability-normalized secreted streptokinase activity reduction – plasminogen activation absorbance, OD405, dose response (AID 1914); type: functional, Streptococcus pyogenes M1 GAS;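 also: secreted streptokinase activity via plasminogen activation per viability signal from cell pellet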
T4 sequence (P10520 whole entry): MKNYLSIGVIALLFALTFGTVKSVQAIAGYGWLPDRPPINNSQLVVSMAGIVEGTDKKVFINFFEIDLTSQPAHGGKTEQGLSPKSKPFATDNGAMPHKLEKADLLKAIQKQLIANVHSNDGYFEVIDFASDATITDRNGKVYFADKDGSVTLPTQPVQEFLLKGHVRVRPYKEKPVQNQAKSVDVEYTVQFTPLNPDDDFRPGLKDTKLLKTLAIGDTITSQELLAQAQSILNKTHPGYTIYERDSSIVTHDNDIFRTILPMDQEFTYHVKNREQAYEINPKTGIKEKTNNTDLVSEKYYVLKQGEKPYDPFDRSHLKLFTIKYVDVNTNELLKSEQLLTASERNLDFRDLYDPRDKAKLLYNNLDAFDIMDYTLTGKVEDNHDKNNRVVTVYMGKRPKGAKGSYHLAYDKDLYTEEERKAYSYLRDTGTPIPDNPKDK

Trypsin = Trypsin (Sus scrofa, UniProt P00761); assay: trypsin protease activity blockade – biochemical, quenched peptide fluorescence, cherry-pick, selectivity assay for Rce1 protease inhibitor project, dose response (AID 488789)
Chain of Trypsin (P00761 whole entry): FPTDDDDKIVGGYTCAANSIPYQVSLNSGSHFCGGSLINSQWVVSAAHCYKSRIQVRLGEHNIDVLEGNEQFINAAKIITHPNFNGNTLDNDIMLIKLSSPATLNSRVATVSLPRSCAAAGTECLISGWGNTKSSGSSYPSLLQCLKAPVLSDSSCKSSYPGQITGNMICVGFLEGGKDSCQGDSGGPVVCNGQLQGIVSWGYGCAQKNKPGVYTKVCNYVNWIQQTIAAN

[9] = THP-1 cell cytotoxicity, dose response, cytotoxicity control for non-replicating M. tuberculosis project (AID 489025); type: functional

C=CCc1ccccc1OCC(CN1CCCCC1)OC(C)=O (stereo not given)
EC50 [1]: 5.31 µM (active)

CC(C)(C)CC(C)(C)NCC(O)COc1ccc2c(c1)CCC2 (stereo not given)
EC50 [1]: 3.35 µM (active)

CCCNC(=O)C[C@H]1C[C@H]2c3cc(NC(=O)CN(C)C)ccc3O[C@H]2[C@@H](CO)O1
AC50 [2]: 38.6 µM (active)

CCOc1nc(Nc2ccc(OC)cc2)nc(OCC)n1
EC50 (cells [3]): > 350 µM (not active)
EC50 (cells [4]): > 350 µM (not active)

CCN(CC)c1ccc(N=C2C(=O)Nc3ccccc32)cc1
AC50 [5]: 2.06 µM (active)
IC50 (Genome polyprotein): > 100 µM (active)
AC50 (INS1): 20.2 µM (active)
IC50 (Nonstructural protein 1): 14.3 µM (active)

CCc1c(C(=O)N2CCCN(C)CC2)csc1C
EC50 [1]: 5.96 µM (active)

COC(=O)c1ccc(-n2cncn2)c([N+](=O)[O-])c1
EC50 (cells [3]): > 350 µM (not active)
EC50 (cells [4]): > 350 µM (not active)

Cc1ccc(C2=NOC(=O)/C2=C\c2ccccc2)cc1
EC50 (cells [3]): > 350 µM (not active)
EC50 (cells [4]): > 350 µM (not active)

CN(Cc1ccccc1)C(=O)CSc1nnc(-c2ccco2)n1-c1ccccc1
EC50 [1]: 1.68 µM (active)

CN1Cc2sc(N)c(C#N)c2CC1(C)C
IC50 [6]: 22.9 µM (active)

CCOC(=O)c1cnc(SCc2ccc(Cl)c(Cl)c2)nc1N1CC1
CC50 (Vero): > 25 µM (active)

O=C(NCCCn1ccnc1)c1cn(-c2ccccc2)nc1-c1ccc(F)cc1
IC50 [6]: 11.5 µM (active)

O=[N+]([O-])c1ccccc1NCCOc1ccccc1
EC50 (H4): 5.5 µM (active)
EC50 [7]: 23.6 µM (active)
IC50 (Protein skinhead-1): 96.3 µM (inactive)
IC50 (Nonstructural protein 1): > 100 µM (active)
EC50 [8]: 24 µM (active)

COc1cccc(C2CC(c3cccs3)=NN2C(=O)CSc2nc3c(cnn3-c3ccc(F)cc3)c(=O)[nH]2)c1OC (stereo not given)
EC50 (Streptokinase A): > 50 µM (not active)
AC50 (Trypsin): 3.95 µM (active)

COc1ccc(C(=O)NC(Cc2ccc(OC(=O)c3ccc(OC)cc3)cc2)C(=O)O)cc1 (stereo not given)
IC50 [6]: 9.12 µM (active)

Cn1c(-c2cccc([N+](=O)[O-])c2)cnc1NCc1cccc(F)c1
AC50 [5]: 1.92 µM (active)
CC50 [9]: > 40 µM (active)

COc1ccc(CN(C)C(=O)c2ccc(NC(=O)CC3SC(N4CCCC4)=NC3=O)cc2)c(OC)c1 (stereo not given)
EC50 [1]: 2.37 µM (active)

NC(=O)C1CCCN(Cc2c(C(=O)N3CCc4ccccc4C3)nc3ccc(Cl)cn23)C1 (stereo not given)
EC50 (cells [3]): > 350 µM (not active)
EC50 (cells [4]): > 350 µM (not active)

Cc1ccc(N=C(S)N(CCCN(C)C)Cc2cc3cc4c(cc3nc2O)OCO4)c(C)c1
EC50 [1]: 3.35 µM (active)

Fc1ccccc1N=C(S)Nc1ccc(Br)cc1
EC50 (cells [3]): > 350 µM (not active)
EC50 (cells [4]): 169 µM (active)

COc1ccccc1N1CCN(C(=O)c2coc(=O)c(Br)c2)CC1
AC50 (Trypsin): 9.18 µM (active)
